Test results published in patent US7794994B2 (Kemeta, LLC, priority 2001, dated 2010).

Columns and labels:
[1] = system: S-ADH from M. vaccae JOB-5; experiment: S-ADH spectrophotometric assay, propane-grown M. vaccae JOB-5; assay type: biochemical, Mycobacterium vaccae strain JOB-5; conditions: for Relative S-ADH Activity (%) JOB 5, alcohol oxidation: alcohol oxidation rates, pH 7.6, 2.5 mM substrate, 0.2 mM NAD+, 2-propanol = 100, NA = no activity detected; for Relative S-ADH Activity (%) JOB 5, ketone reduction: ketone reduction rates, pH 6.2, 2.5 mM substrate, 0.2 mM NADH, acetone = 100
Description: Assays were performed in 2 mL quartz cuvettes and contained NAD(H) (0.2 mM), potassium phosphate buffer (25 mM), and a source of enzyme (cell-free extracts, column fractions, or purified enzyme) in a total reaction volume of 1 mL at pH 6.2 ([…]) at 30° C. Assays were pre-incubated for 1.5 min. at 30° C. with all assay components except substrate. Assays were initiated by addition of substrate (2.5 mM) and monitored over time by measuring the change in absorbance at 340 nm (∈340 of 6.22 mM^−1·cm^−1 for NADH).

[2] = target: T1, acetone carboxylase coupled to β-hydroxybutyrate dehydrogenase (Xanthobacter versatilis, UniProt Q8RM03+Q8RM04); experiment: Acetone carboxylase coupled to NADH oxidation spectrophotometric assay; assay type: biochemical, X. autotrophicus strain Py2; conditions: for activity as substrate and inhibition of acetone carboxylation activity: alternative compounds in coupled enzyme system
T1 construct: host or cells: X. autotrophicus strain Py2 (native organism; enzyme obtained from Prof; S. A. Ensign / purified as previously published)
T1 sequence (Q8RM03 1-776): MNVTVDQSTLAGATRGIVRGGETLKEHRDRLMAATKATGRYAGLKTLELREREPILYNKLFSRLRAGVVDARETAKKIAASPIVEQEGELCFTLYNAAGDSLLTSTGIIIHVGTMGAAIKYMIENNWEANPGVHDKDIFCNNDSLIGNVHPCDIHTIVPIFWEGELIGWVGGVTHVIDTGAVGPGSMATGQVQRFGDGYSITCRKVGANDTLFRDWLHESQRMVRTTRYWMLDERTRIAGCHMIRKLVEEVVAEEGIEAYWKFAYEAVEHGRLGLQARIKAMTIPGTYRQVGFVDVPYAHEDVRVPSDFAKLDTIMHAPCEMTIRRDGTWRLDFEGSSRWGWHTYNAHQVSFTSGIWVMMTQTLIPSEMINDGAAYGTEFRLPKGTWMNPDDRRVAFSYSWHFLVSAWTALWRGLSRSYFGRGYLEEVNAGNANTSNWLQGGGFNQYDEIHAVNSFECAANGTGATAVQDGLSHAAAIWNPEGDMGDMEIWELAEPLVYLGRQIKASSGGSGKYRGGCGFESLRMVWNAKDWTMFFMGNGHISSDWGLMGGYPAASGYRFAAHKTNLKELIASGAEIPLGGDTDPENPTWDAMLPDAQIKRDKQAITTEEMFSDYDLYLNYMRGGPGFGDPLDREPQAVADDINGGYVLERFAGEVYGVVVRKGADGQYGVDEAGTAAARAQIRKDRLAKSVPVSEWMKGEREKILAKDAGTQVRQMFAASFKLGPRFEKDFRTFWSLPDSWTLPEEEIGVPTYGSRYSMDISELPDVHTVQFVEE
T1 sequence (Q8RM04 1-717): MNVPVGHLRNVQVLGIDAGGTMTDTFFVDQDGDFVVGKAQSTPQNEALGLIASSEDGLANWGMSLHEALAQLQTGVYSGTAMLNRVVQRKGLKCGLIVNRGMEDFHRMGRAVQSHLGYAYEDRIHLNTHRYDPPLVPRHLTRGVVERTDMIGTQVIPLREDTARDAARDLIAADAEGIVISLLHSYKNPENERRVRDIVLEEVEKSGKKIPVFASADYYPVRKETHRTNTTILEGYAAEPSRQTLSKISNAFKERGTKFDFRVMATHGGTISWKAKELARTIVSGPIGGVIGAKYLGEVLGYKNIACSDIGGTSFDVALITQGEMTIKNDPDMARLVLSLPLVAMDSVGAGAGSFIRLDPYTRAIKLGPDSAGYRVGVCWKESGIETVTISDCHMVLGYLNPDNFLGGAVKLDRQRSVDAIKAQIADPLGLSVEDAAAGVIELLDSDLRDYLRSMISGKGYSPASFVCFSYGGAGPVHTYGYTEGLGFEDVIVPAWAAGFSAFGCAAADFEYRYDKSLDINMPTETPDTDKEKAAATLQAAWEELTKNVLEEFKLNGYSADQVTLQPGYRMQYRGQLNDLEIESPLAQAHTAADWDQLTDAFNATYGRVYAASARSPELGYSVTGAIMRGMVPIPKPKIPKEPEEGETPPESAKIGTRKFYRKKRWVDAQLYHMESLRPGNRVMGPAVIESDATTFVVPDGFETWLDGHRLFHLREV
T1 sequence (Q8RM02 2-168 partner limits assumed): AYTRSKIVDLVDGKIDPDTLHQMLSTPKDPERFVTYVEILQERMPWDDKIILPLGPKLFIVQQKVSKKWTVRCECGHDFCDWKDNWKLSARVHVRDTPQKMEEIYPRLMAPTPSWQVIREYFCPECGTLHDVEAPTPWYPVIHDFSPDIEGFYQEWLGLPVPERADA
Description: Assays were performed in 2 mL (1 cm path length) quartz cuvettes that had been modified by fusing a serum bottle-style quartz top (7×13 mm at mouth), allowing the cuvettes to be sealed with a red rubber serum stopper. […] The addition of […] (3 U) and NADH (0.2 mM) allowed acetoacetate formation to be coupled to the oxidation of NADH. […] The reaction was monitored by measuring the decrease in absorbance at 340 nm (∈340 of 6.22 mM^−·cm^−1 for NADH) over time in an Agilent Technologies (Palo Alto, Calif.) model 8453 UV-Visible Spectroscopy System containing a thermostat-controlled cell holder at 30° C.

[3] = target: T2, S-ADH from T. brockii (Thermoanaerobacter brockii, UniProt P14941); experiment: S-ADH spectrophotometric assay, T. brockii S-ADH; assay type: biochemical, Thermoanaerobium brockii; conditions: for Relative S-ADH Activity (%) T. brockii, ketone reduction: ketone reduction rates, pH 6.2, 2.5 mM substrate, 0.2 mM NADPH, acetone = 100; for Relative S-ADH Activity (%) T. brockii, alcohol oxidation: alcohol oxidation rates, pH 7.6, 2.5 mM substrate, 0.2 mM NADP+, 2-propanol = 100, NA = no activity detected
T2 sequence (P14941 1-352): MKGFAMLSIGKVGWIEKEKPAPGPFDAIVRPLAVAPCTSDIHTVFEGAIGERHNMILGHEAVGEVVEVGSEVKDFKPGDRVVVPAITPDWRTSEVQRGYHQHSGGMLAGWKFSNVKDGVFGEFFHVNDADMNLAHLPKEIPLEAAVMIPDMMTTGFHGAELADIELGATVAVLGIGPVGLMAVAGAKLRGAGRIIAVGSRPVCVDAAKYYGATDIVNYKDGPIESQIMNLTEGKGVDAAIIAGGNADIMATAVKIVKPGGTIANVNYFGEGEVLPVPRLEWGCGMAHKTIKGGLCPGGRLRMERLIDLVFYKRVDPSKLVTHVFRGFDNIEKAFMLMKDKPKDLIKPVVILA
Description: […] Assays were pre-incubated for 1.5 min. at 30° C. with all assay components except substrate. Assays were initiated by addition of substrate (2.5 mM) and monitored over time by measuring the change in absorbance at 340 nm (∈340 of 6.22 mM^−1·cm^−1 for NADH).

CCCO [1-Propanol]
Relative S-ADH Activity (%) JOB 5, alcohol oxidation [1]: 9% | activity as substrate and inhibition of acetone carboxylation activity [2]: not active nor did they inhibit acetone carboxylation activity

CC(C)=O [Acetone, acetone]
Relative S-ADH Activity (%) JOB 5, ketone reduction [1]: 100% | Relative S-ADH Activity (%) T. brockii, ketone reduction [3]: 100%

CCC(C)=O [2-Butanone]
Relative S-ADH Activity (%) JOB 5, ketone reduction [1]: 213% | Relative S-ADH Activity (%) T. brockii, ketone reduction [3]: 67% | rate relative to acetone using the coupled enzyme system [2]: 3 to 4%

CC(C)O [2-Propanol]
Relative S-ADH Activity (%) JOB 5, alcohol oxidation [1]: 100% | Relative S-ADH Activity (%) T. brockii, alcohol oxidation [3]: 100% | activity as substrate and inhibition of acetone carboxylation activity [2]: not active nor did they inhibit acetone carboxylation activity

CCC(C)O (centres unmarked) [2-Butanol]
Relative S-ADH Activity (%) JOB 5, alcohol oxidation [1]: 130% | Relative S-ADH Activity (%) T. brockii, alcohol oxidation [3]: 121% | activity as substrate and inhibition of acetone carboxylation activity [2]: not active nor did they inhibit acetone carboxylation activity

CCO [Ethanol]
effect on rate of NADH oxidation (inhibition) ([2]; addition of ethanol (10 mM)): no decrease in the rate was observed
